{"source": "patent US20190388349A1", "about": "“NON-TOXIC VEHICLE TO SOLUBILIZE, DELIVER, AND OBTAIN BIOLOGICAL ACTIVITY OF STEROID HORMONES AT CELL, TISSUE, AND ORGAN TARGETS, IN VITRO AND IN VIVO” (Government of the United States as Represented by the …, priority 2017, published 2019)", "key": {"[1]": {"system": "MCF-7 breast cancer cells", "experiment": "Cell death and cell growth in MCF-7 breast cancer cell cultures", "format": "cell-based", "settings": "5 nM E2; for cell growth / cell density (microscopic photograph): MCF-7 grown for 5 days, 25 μM androstene hormone, PEG 300 with 5% LIPOFECTAMINE", "experimental": "(§1) Hormone dependent, noninvasive, epithelial phenotype (ER/PR positive MCF-7 breast cancer cells) and hormone independent, invasive, mesenchymal phenotype (ER/PR negative MDA-MB-231 breast cancer cell) cell suspensions were acquired and prepared in complete medium (DMEM/F12, 10% FBS, 1% penicillin/streptomycin (Gibco)). Cellular concentration was adjusted to 2×10^5 cells/mL.\n(§2) Androstene hormone solutions according to embodiments of the present invention were prepared from a first solution and a second solution. For the first solution, 3.0 mg of β-AED or β-AET was added to warm PEG 300 to prepare 50 mM stock. For the second solution, 10 μL of LIPOFECTAMINE (3:1 DOSPA: DOPE) was introduced to 100 μL of PEG 300, mixed, and incubated in a water bath at 42° C. for 30 min. The first and second solutions were then mixed in a sonicator water bath at 42° C. for 1 hr. The final concentration was 50 mM β-AED (or AET, as used).\n(§3) A β-estradiol solution was also prepared by adding 2.7 mg of β-estradiol to 200 μL warmed PEG 300 with LIPOFECTAMINE and then further diluted 1:1000 with PEG-300. The final concentration was 50 μM.\nA diluted β-AED (or β-AET) solution was prepared with complete medium at a final concentration of 50 μM (1:1000 dilute of 50 mM). Likewise, a diluted β-E2 solution was prepared with complete medium at a final concentration of 10 nM (1:5000 dilute of 50 μM).\nUsing a 24-well plate, mixtures of 0.5 mL of cells per well with 0.5 mL of medium diluted hormone vehicle. Cell cultures were maintained at 90% humidity, 7% CO2, and 37° C."}, "[2]": {"system": "MDA-MB-231 breast cancer cell", "experiment": "Cell death in MDA-MB-231 breast cancer cell cultures", "format": "cell-based", "settings": "25 μM β-AED, 25 μM β-AET, 5 nM E2; PEG 300 with LIPOFECTAMINE vehicle", "experimental": "as §1, §2, §3\nA diluted β-AED (or β-AET) solution was prepared with complete medium at a final concentration of 50 μM (1:1000 dilute of 50 mM). Likewise, a diluted β-E2 solution was prepared with complete medium at a final concentration of 10 nM (1:5000 dilute of 50 μM). […]"}, "293T cells": {"system": "293T cells", "experiment": "Biological function (phenotype, mobile cells) in 293T cells", "format": "cell-based, human", "settings": "for mobile cells / mobile elements / processes (photograph): vehicle PEG 300 with LIPOFECTAMINE, 25 μM β-AED, 5 nM E2", "experimental": "A non-toxic vehicle for administration of androstene hormones according to embodiments of the present invention was prepared from a first solution and a second solution. The first solution, comprising liposomal formulation, was placed in PEG 300 to a concentration of 5% and heated in a sonicating water bath to about 45° C. The second solution, comprising a selected hormone (one or more of 5Δ-androsten-3β, 17α-diol, 5Δ-androsten-3β, 17β-diol, or 5Δ-androsten-3β,7β,17β-triol), was placed in PEG 300 and heated in a sonicating water bath to about 45° C. The first and second solutions were then combine and stirred until dissolved.\nBiological function was tested in 293T cells, which is a human embryonic cell line transformed with Large T antigen […] SV40. This hypotriploid (polyploid) cell line is particularly useful in such transformation studies and has very distinct phenotypes when grown. All androstene hormone treatment applications were at concentrations of 25 μM."}, "[3]": {"settings": "vehicle PEG 300 only, androstene hormone 25 μM"}}, "data": [{"smiles": "C[C@]12CC[C@@H]3c4ccc(O)cc4CC[C@H]3[C@@H]1CC[C@@H]2O", "note": "[E2, 17β-estradiol]", "values": [{"measurement": "MCF7 Cell Death Amount", "setting": "[1]; 25 μM β-AED, 25 μM β-AET, PEG 300 with LIPOFECTAMINE vehicle", "value": "Not observed"}, {"measurement": "cell growth / cell density (microscopic photograph)", "setting": "[1]", "value": "thick and similar to the cell growth of FIGS. 14 and 16"}, {"measurement": "MDA-MB-231 Cell Death Amount", "setting": "[2]", "value": "Not observed"}, {"measurement": "mobile cells / cell processes (photograph)", "setting": "293T cells; [3]", "value": "many more cell processes"}, {"measurement": "mobile cells / mobile elements / processes (photograph)", "setting": "293T cells", "value": "many large islands with mobile processes, small islands with mobile process, and mobile cells forming interconnections with other elements"}]}, {"smiles": "C[C@]12CC[C@H]3[C@@H]([C@@H](O)C=C4C[C@@H](O)CC[C@@]43C)[C@@H]1CC[C@@H]2O", "note": "[β-AET, 5-androstene-3β,7β,17β-triol]", "values": [{"measurement": "cell growth / cell density (microscopic photograph)", "setting": "[1]", "value": "thick and similar to the cell growth of FIG. 14"}]}, {"smiles": "C[C@]12CC[C@H]3[C@@H](CC=C4C[C@@H](O)CC[C@@]43C)[C@@H]1CC[C@@H]2O", "note": "[β-AED, androst-5-ene-3β,17β-diol]", "values": [{"measurement": "cell growth / cell density (microscopic photograph)", "setting": "[1]", "value": "areas of decreased density"}, {"measurement": "cell islands (photograph)", "setting": "293T cells; [3]", "value": "larger"}, {"measurement": "mobile cells / cell processes (photograph)", "setting": "293T cells; [3]", "value": "significant reduction in mobile cells"}, {"measurement": "mobile cells / mobile elements / processes (photograph)", "setting": "293T cells", "value": "drastic decrease in, or morphological change, in mobile elements"}]}]}
